Target: T1, human CaMKIIδ (Homo sapiens, UniProt Q13557)
T1 construct: Full-length, glutathione-S-transferase(GST)-tagged, human CaMKIIδ was purchased from Carna Biosciences; purchased Carna Biosciences (CaMKIIδ); Wako Pure Chemical Industries (calmodulin) 02-111
Assay: Evaluation of in vitro CaMKII inhibitory activity (binding assay, TR-FRET)
Details: not given
Outline: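 Inhibitors, in eight concentrations of 4-fold dilution, were incubated 1 h at room temperature with a protein–fluorescent probe premix preformed 30 min on ice, containing calmodulin and terbium anti-GST antibody. Displacement read by TR-FRET in duplicate; IC50 by logistic fitting.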

| Compound | IC50 |
| --- | --- |
| C[C@@H](Cn1cncn1)Oc1cc(-c2ccn3ncc(-c4cc(F)ccc4C#N)c3n2)ccn1 [compound 286] | < 10 nM |

Same assay, conditions: human CaMKIIδ, TR-FRET binding assay; class symbols A/B/C; read-out: Act (CaMKII inhibitory activity, binding assay)

| Compound | IC50 |
| --- | --- |
| C[C@@H](Cn1cnnn1)Oc1cc(-c2ccc3ncc(-c4cnn(CCCO)c4C#N)n3n2)ccc1F [compound 225] | < 10 nM |
| C[C@@H](Cn1cnnn1)Oc1cc(-c2ccc3ncc(-c4cccc(OCC(C)(C)C#N)c4C#N)n3n2)ccc1F [compound 226, 2-(2-cyano-2,2-dimethylethoxy)-6-[6-(4-fluoro-3-{[(2S)-1-(1H-tetrazol-1-yl)propan-2-yl]oxy}phenyl)imidazo[1,2-b]pyridazin-3-yl]benzonitrile] | < 10 nM |
| C[C@@H](Cn1cnnn1)Oc1cc(-c2ccc3ncc(-c4ccccn4)n3n2)ccc1F [compound 227, 2-[6-(4-fluoro-3-{[(2S)-1-(1H-tetrazol-1-yl)propan-2-yl]oxy}phenyl)imidazo[1,2-b]pyridazin-3-yl]pyridine] | < 10 nM |
| C[C@@H](Cn1cnnn1)Oc1cc(-c2ccc3ncn(-c4cccc(C(=O)N(C)C)c4C#N)c3n2)ccc1F [compound 228] | > 100 nM |
| COC1CN(C(=O)c2cccc(-n3cnc4ccc(-c5ccc(F)c(O[C@@H](C)Cn6cnnn6)c5)nc43)c2C#N)C1 [compound 229, 2-[5-(4-fluoro-3-{[(2S)-1-(1H-tetrazol-1-yl)propan-2-yl]oxy}phenyl)-3H-imidazo[4,5-b]pyridin-3-yl]-6-(3-methoxyazetidine-1-carbonyl)benzonitrile] | 10 to 100 nM |
| COCCCn1ncc(-c2cnc3ccc(-c4ccc(F)c(O[C@@H](C)Cn5cnnn5)c4)nn23)c1C(=O)O [compound 230] | > 100 nM |

Same assay, conditions: in vitro CaMKII inhibitory activity (binding assay), human CaMKIIδ; read-out: Act

| Compound | IC50 |
| --- | --- |
| C[C@@H](Cn1cnnn1)Oc1cc(-c2ccc3ncc(-c4nccc(NC(=O)OC(C)(C)C)c4C#N)n3n2)ccc1F [compound 231] | < 10 nM |
| C[C@@H](Cn1cnnn1)Oc1cc(-c2ccc3ncc(-c4nccc(N(C(=O)OC(C)(C)C)C(=O)OC(C)(C)C)c4C#N)n3n2)ccc1F [compound 232] | < 10 nM |
| C[C@@H](Cn1cnnn1)Oc1cc(-c2ccc3ncc(-c4ccnc(N)c4C#N)n3n2)ccc1F [compound 233] | < 10 nM |
| C[C@@H](Cn1cnnn1)Oc1cc(-c2ccc3ncc(-c4nccc(N)c4C#N)n3n2)ccc1F [compound 234] | < 10 nM |
| CNC(=O)c1c(-c2cnc3ccc(-c4ccc(F)c(O[C@@H](C)Cn5cnnn5)c4)nn23)cnn1CCCOC [compound 235] | > 100 nM |
| COCCCn1ncc(-c2cnc3ccc(-c4ccc(F)c(O[C@@H](C)Cn5cnnn5)c4)nn23)c1C(=O)N(C)C [compound 236] | > 100 nM |
| COCCCn1ncc(-c2cnc3ccc(-c4ccc(F)c(O[C@@H](C)Cn5cnnn5)c4)nn23)c1C(=O)NCCOC [compound 237] | > 100 nM |
| COC(=O)c1sccc1-c1cnc2ccc(-c3ccc(F)c(O[C@@H](C)Cn4cnnn4)c3)nn12 [compound 238] | 10 to 100 nM |
| COc1cc(-c2cnc3ccc(-c4ccc(F)c(O[C@@H](C)Cn5cnnn5)c4)nn23)c(C#N)cn1 [compound 240] | < 10 nM |
| C[C@@H](Cn1cnnn1)Oc1cc(-c2ccc3ncc(-c4cc(=O)[nH]cc4C#N)n3n2)ccc1F [compound 241] | < 10 nM |
| C[C@@H](Cn1cnnn1)Oc1cc(-c2ccc3ncc(-c4cc(=O)n(C)cc4C#N)n3n2)ccc1F [compound 242] | < 10 nM |
| C[C@@H](Cn1cnnn1)Oc1cc(-c2ccc3ncc(-c4ccsc4C(=O)O)n3n2)ccc1F [compound 243] | > 100 nM |
| CNC(=O)c1sccc1-c1cnc2ccc(-c3ccc(F)c(O[C@@H](C)Cn4cnnn4)c3)nn12 [compound 245] | 10 to 100 nM |
| C[C@@H](Cn1cnnn1)Oc1cc(-c2ccc3ncc(-c4cc(F)ccc4C#N)n3n2)ccc1F [compound 246] | < 10 nM |
| C[C@@H](Cn1cnnn1)Oc1cc(-c2ccc3ncc(-c4cccnc4C#N)n3n2)ccc1F [compound 248] | < 10 nM |
| COc1ccc(-c2cnc3ccc(-c4ccc(F)c(O[C@@H](C)Cn5cnnn5)c4)nn23)c(C#N)n1 [compound 249] | < 10 nM |
| C[C@@H](Cn1cnnn1)Oc1cc(-c2ccc3ncc(-c4ccn5ccnc5c4C#N)n3n2)ccc1F [compound 250] | < 10 nM |
| C[C@@H](Cn1cnnn1)Oc1cccc(-c2ccc3ncc(-c4ccc[nH]c4=O)n3n2)c1 [compound 252, 3-[6-(3-{[(2S)-1-(1H-tetrazol-1-yl)propan-2-yl]oxy}phenyl)imidazo[1,2-b]pyridazin-3-yl]-1,2-dihydropyridin-2-one] | < 10 nM |
| COCCn1cccc(-c2cnc3ccc(-c4cccc(O[C@@H](C)Cn5cnnn5)c4)nn23)c1=O [compound 254] | < 10 nM |
| C[C@@H](Cn1cnnn1)Oc1cc(-c2ccc3ncc(-c4ccc(=O)[nH]c4C#N)n3n2)ccc1F [compound 255] | < 10 nM |
| C[C@@H](Cn1cnnn1)Oc1cc(-c2ccc3ncc(-c4ccc(=O)n(C)c4C#N)n3n2)ccc1F [compound 256] | > 100 nM |
| C[C@@H](Cn1cnnn1)Oc1cccc(-c2ccc3ncc(-c4cccnc4C#N)n3n2)c1 [compound 257, 3-[6-(3-{[(2S)-1-(1H-tetrazol-1-yl)propan-2-yl]oxy}phenyl)imidazo[1,2-b]pyridazin-3-yl]pyridine-2-carbonitrile] | < 10 nM |
| C[C@@H](Cn1cnnn1)Oc1cc(-c2ccc3ncc(-c4cccc(N=S5(=O)CCCC5)c4C#N)n3n2)ccc1F [compound 258] | < 10 nM |
| C[C@@H](Cn1cnnn1)Oc1cccc(-c2ccc3ncc(-c4ccn(C)c(=O)c4C#N)n3n2)c1 [compound 259, 1-methyl-2-oxo-4-[6-(3-{[(2S)-1-(1H-tetrazol-1-yl)propan-2-yl]oxy}phenyl)imidazo[1,2-b]pyridazin-3-yl]-1,2-dihydropyridine-3-carbonitrile] | < 10 nM |
| C[C@@H](Cn1cnnn1)Oc1cccc(-c2ccc3ncc(-c4ccnc(Cl)c4C#N)n3n2)c1 [compound 260] | < 10 nM |

| Compound | IC50 |
| --- | --- |
| CCOc1nccc(-c2cnc3ccc(-c4cccc(O[C@@H](C)Cn5cnnn5)c4)nn23)c1C#N [compound 261] | < 10 nM |
| C[C@@H](Cn1cnnn1)Oc1cccc(-c2ccc3ncc(-c4nccnc4C#N)n3n2)c1 [compound 262] | < 10 nM |
| C[C@@H](Cn1cnnn1)Oc1cc(-c2ccc3ncc(-c4cc(N=S(C)(C)=O)ccc4C#N)n3n2)ccc1F [compound 263] | > 100 nM |
| C[C@@H](Cn1cnnn1)Oc1cc(-c2ccc3ncc(-c4cc(N=S5(=O)CCCC5)ccc4C#N)n3n2)ccc1F [compound 264] | > 100 nM |
| C[C@@H](Cn1cnnn1)Oc1cc(-c2ccc3ncc(-c4cn(C)nc4C(F)(F)F)n3n2)ccc1F [compound 265] | 10 to 100 nM |
| Cc1c(-c2cnc3ccc(-c4ccc(F)c(O[C@@H](C)Cn5cnnn5)c4)nn23)c(C(F)(F)F)nn1C [compound 266] | > 100 nM |
| COc1nccnc1-c1cnc2ccc(-c3ccc(F)c(O[C@@H](C)Cn4cnnn4)c3)nn12 [compound 268] | 10 to 100 nM |
| COc1ncc(F)cc1-c1cnc2ccc(-c3ccc(F)c(O[C@@H](C)Cn4cnnn4)c3)nn12 [compound 270] | < 10 nM |
| C[C@@H](Cn1cnnn1)Oc1cccc(-c2ccc3ncc(-c4cc[nH]c(=O)c4C#N)n3n2)c1 [compound 272, 2-oxo-4-[6-(3-{[(2S)-1-(1H-tetrazol-1-yl)propan-2-yl]oxy}phenyl)imidazo[1,2-b]pyridazin-3-yl]-1,2-dihydropyridine-3-carbonitrile] | < 10 nM |
| C[C@@H](Cn1cnnn1)Oc1cccc(-c2ccc3ncc(-c4ncncc4C#N)n3n2)c1 [compound 273] | 10 to 100 nM |
| C[C@@H](Cn1cnnn1)Oc1cccc(-c2ccc3ncc(-c4nccc(C5CC5)c4C#N)n3n2)c1 [compound 274] | < 10 nM |
| C[C@@H](Cn1cnnn1)Oc1cccc(-c2ccc3ncc(-c4c[n+]([O-])ccc4C#N)n3n2)c1 [compound 276] | < 10 nM |
| Cc1cnc(C#N)c(-c2cnc3ccc(-c4cccc(O[C@@H](C)Cn5cnnn5)c4)nn23)n1 [compound 277] | < 10 nM |
| Cc1ccc(C#N)c(-c2cnc3ccc(-c4cccc(O[C@@H](C)Cn5cnnn5)c4)nn23)n1 [compound 278] | < 10 nM |
| C[C@@H](Cn1cnnn1)Oc1cccc(-c2ccc3ncc(-c4ccncc4C#N)n3n2)c1 [compound 279, 4-[6-(3-{[(2S)-1-(1H-tetrazol-1-yl)propan-2-yl]oxy}phenyl)imidazo[1,2-b]pyridazin-3-yl]pyridine-3-carbonitrile] | < 10 nM |
| C[C@@H](Cn1cnnn1)Oc1cccc(-c2ccc3ncc(-c4nnccc4C#N)n3n2)c1 [compound 280] | < 10 nM |
| COc1cnc(-c2cnc3ccc(-c4cccc(O[C@@H](C)Cn5cnnn5)c4)nn23)c(C#N)c1 [compound 281] | < 10 nM |
| C[C@@H](Cn1cnnn1)Oc1cccc(-c2ccc3ncc(-c4cc[n+]([O-])cc4C#N)n3n2)c1 [compound 282] | 10 to 100 nM |
| C[C@@H](Cn1cnnn1)Oc1cccc(-c2ccc3ncc(-c4cnccn4)n3n2)c1 [compound 283] | < 10 nM |
| COc1cnc(C#N)c(-c2cnc3ccc(-c4cccc(O[C@@H](C)Cn5cnnn5)c4)nn23)n1 [compound 285] | < 10 nM |
| C[C@@H](Cn1cnnn1)Oc1cncc(-c2ccc3ncc(-c4cc(F)ccc4C#N)n3n2)c1 [compound 287, 4-fluoro-2-[6-(5-{[(2S)-1-(1H-tetrazol-1-yl)propan-2-yl]oxy}pyridin-3-yl)imidazo[1,2-b]pyridazin-3-yl]benzonitrile] | < 10 nM |
| C[C@@H](Cn1cnnn1)Oc1cc(-c2ccc3ncc(-c4nccnc4C#N)n3n2)ccc1F [compound 290] | < 10 nM |
| C[C@@H](Cn1cnnn1)Oc1cc(-c2ccc3ncn(-c4cc(F)ccc4C#N)c3n2)ccc1F [compound 292] | < 10 nM |
| C[C@@H](Cn1cnnn1)Oc1ccc(F)c(-c2ccc3ncc(-c4ncccc4C#N)n3n2)c1 [compound 293] | 10 to 100 nM |
| C[C@@H](Cn1cnnn1)Oc1cc(-c2ccn3ncc(-c4nccnc4C#N)c3n2)ccc1F [compound 294] | < 10 nM |

Reference: patent US12528816B2, “Substituted imidazo [1,2-b] pyridazines and [1, 2, 4] triazolo [ 4,3-b] pyridazines as camkii inhibitors” (Cardurion Pharmaceuticals, INC., priority 2020, dated 2026)
